Test results: patent US7932284B2, “Indole sulfonamide modulators of progesterone receptors” (Eli Lilly and Company, priority 2006, dated 2011)

Experiments:
[1] = target: T1, human PR (progesterone receptor) (Homo sapiens, UniProt P06401); assay: PR competition binding assay (HEK293 cell lysate); conditions: 0.29 nM 3H-methyltrienolone, 293-PR lysate
T1 construct: expressed in transfected cells; host or cells: HEK293
T1 sequence (P06401 1-933): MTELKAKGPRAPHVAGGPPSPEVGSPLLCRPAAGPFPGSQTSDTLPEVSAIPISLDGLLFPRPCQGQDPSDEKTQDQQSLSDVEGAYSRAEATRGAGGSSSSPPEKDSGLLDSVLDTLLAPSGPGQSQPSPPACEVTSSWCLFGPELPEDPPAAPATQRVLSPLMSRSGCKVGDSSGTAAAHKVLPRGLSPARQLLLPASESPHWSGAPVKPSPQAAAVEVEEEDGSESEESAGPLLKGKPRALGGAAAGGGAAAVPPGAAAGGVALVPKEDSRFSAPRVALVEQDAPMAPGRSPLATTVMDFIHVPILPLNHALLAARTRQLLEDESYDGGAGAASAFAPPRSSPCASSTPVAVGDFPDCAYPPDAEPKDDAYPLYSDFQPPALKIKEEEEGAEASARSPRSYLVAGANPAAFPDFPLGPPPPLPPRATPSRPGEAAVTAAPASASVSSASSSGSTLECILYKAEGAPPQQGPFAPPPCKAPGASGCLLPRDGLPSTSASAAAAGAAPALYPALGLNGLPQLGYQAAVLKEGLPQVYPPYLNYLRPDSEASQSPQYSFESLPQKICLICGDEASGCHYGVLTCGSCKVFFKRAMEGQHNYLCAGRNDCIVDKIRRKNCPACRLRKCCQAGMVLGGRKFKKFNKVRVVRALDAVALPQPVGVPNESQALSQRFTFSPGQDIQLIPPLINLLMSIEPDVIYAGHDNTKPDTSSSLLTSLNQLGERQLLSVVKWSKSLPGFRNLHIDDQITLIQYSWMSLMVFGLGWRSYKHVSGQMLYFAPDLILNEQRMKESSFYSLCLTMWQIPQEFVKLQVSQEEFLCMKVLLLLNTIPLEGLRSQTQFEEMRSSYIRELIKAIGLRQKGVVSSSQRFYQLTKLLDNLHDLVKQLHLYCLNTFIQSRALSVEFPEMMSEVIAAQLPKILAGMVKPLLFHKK
Experimental: (§1) Cell lysates from HEK293 cells overexpressing human GR (glucocorticoid receptor), AR (androgen receptor), MR (mineralocorticoid receptor) or PR (progesterone receptor) are used for competition binding assays to determine Ki values for compounds of interest. Briefly, competition binding assays are run in a buffer containing 20 mM HEPES, pH 7.6, 0.2 mM EDTA, 75 mM NaCl, 1.5 mM MgCl2, 20% glycerol, 20 mM sodium molybdate, 0.2 mM DTT, 20 ug/ml aprotinin, and 20 ug/ml leupeptin, using either 0.3 nM ^3H-dexamethasone for GR binding, 0.36 nM ^3H-methyltrienolone for AR binding, 0.25 nM ^3H-aldosterone for MR binding, or 0.29 nM ^3H-methyltrienolone for PR binding, and either 20 ug 293-GR lysate, 22 ug 293-AR lysate, 20 ug 293-MR lysate or 40 ug 293-PR lysate per well. Competing compounds are added at various concentrations in half-log increments. Non-specific binding is determined in the presence of 500 nM dexamethasone for GR binding, 500 nM aldosterone for MR binding, or 500 nM methyltrienolone for AR and PR binding. The binding reaction (140 μl) is incubated overnight at 4° C., then 70 μl of cold charcoal-dextran buffer (containing per 50 ml of assay buffer, 0.75 g of charcoal and 0.25 g of dextran) is added to each reaction. Plates are mixed 8 minutes on an orbital shaker at 4° C. Plates are then centrifuged at 3,000 rpm at 4° C. for 10 minutes. An aliquot of 120 μl of the mixture is transferred to another 96-well plate and 175 μl of Wallac Optiphase “Hisafe 3” scintillation fluid is added to each well. Plates are sealed and shaken vigorously on an orbital shaker. After an incubation of 2 hrs, plates are read in a Wallac Microbeta counter. […] The Kd for ^3H-dexamethasone for GR binding, ^3H-methyltrienolone for AR binding, ^3H-aldosterone for MR binding, or ^3H-methyltrienolone for PR binding, is determined by saturation binding. The IC50 values for compounds are converted to Ki using Cheng-Prusoff equation and the Kd determined by saturation binding assay.
More preferably the compounds of the present invention have PR binding value K; of <10 nM.

[2] = target: T2, human AR (androgen receptor) (Homo sapiens, UniProt P10275); assay: AR competition binding assay (HEK293 cell lysate); conditions: 0.36 nM 3H-methyltrienolone, 293-AR lysate
T2 construct: expressed in transfected cells; host or cells: HEK293
T2 sequence (P10275 1-920): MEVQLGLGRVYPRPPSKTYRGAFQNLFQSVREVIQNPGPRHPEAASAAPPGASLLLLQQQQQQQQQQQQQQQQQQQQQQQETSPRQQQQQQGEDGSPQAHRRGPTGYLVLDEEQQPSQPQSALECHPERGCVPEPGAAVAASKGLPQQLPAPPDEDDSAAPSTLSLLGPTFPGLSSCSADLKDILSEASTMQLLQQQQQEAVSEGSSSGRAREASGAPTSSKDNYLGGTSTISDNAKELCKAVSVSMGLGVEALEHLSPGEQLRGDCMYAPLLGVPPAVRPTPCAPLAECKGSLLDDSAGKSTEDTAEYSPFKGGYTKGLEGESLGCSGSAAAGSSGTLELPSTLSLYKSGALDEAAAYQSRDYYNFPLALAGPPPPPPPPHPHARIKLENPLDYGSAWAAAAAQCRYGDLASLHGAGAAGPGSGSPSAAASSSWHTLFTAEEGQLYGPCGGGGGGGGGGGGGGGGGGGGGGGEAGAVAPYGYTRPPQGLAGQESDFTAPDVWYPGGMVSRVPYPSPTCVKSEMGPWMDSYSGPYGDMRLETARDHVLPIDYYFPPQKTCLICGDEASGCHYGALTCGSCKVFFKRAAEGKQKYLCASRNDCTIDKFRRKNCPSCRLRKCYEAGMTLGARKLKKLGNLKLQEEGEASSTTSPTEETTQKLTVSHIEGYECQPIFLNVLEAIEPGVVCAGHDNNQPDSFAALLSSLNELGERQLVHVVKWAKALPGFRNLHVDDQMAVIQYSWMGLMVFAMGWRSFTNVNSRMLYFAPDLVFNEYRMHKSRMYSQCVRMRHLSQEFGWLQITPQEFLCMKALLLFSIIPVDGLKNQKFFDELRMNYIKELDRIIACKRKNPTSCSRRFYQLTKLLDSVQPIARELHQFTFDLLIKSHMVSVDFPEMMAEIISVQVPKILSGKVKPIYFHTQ
Experimental: as §1

SMILES | Ki [1] | Ki [2]
Cn1cc(-c2ccc(C#N)cc2)c2ccc(NS(C)(=O)=O)cc21 [Example 25, N-[3-(4-Cyano-phenyl)-1-methyl-1H-indol-6-yl]-methanesulfonamide] | < 50 nM | > 1000 nM
CC(C)Cn1cc(-c2ccc(C#N)cc2)c2ccc(NS(C)(=O)=O)cc21 [Example 29, N-[3-(4-Cyano-phenyl)-1-isobutyl-1H-indol-6-yl]-methanesulfonamide] | < 50 nM | 100 to 500 nM
Cn1cc(-c2ccc(C#N)cc2)c2ccc(NS(=O)(=O)c3cccs3)cc21 [Example 32, Thiophene-2-sulfonic acid [3-(4-cyano-phenyl)-1-methyl-1H-indol-6-yl]-amide] | < 50 nM | > 1000 nM
CC(C)n1cc(-c2ccc(Cl)cc2)c2ccc(NS(C)(=O)=O)cc21 [Example 36, N-[3-(4-Chloro-phenyl)-1-isopropyl-1H-indol-6-yl]-methanesulfonamide] | < 50 nM | 500 to 1000 nM
CCOC(=O)c1ccc(-c2cn(C(C)C)c3cc(NS(C)(=O)=O)ccc23)cc1 [Example 74, 4-(1-Isopropyl-6-methanesulfonylamino-1H-indol-3-yl)-benzoic acid ethyl ester] | < 50 nM | > 1000 nM
CS(=O)(=O)Nc1ccc2c(-c3ccc(C#N)cc3)cn(CC3CCCCC3)c2c1 [Example 77, N-[3-(4-Cyano-phenyl)-1-cyclohexylmethyl-1H-indol-6-yl]-methanesulfonamide] | < 50 nM | 100 to 500 nM
CSc1ccc(-c2cn(C(C)C)c3cc(NS(C)(=O)=O)ccc23)cc1 [Example 83, N-[1-Isopropyl-3-(4-methylsulfanyl-phenyl)-1H-indol-6-yl]-methanesulfonamide] | < 50 nM | > 1000 nM
Cc1ccc(-c2cn(C(C)C)c3cc(NS(C)(=O)=O)ccc23)cc1F [Example 84, N-[3-(3-Fluoro-4-methyl-phenyl)-1-isopropyl-1H-indol-6-yl]-methanesulfonamide] | < 50 nM | 500 to 1000 nM
CC(C)n1cc(-c2ccccc2)c2ccc(NS(C)(=O)=O)cc21 [Example 85, N-(1-Isopropyl-3-phenyl-1H-indol-6-yl)-methanesulfonamide] | < 50 nM | 100 to 500 nM
CC(C)n1cc(-c2ccc(O)cc2)c2ccc(NS(C)(=O)=O)cc21 [Example 93, N-[3-(4-Hydroxy-phenyl)-1-isopropyl-1H-indol-6-yl]-methanesulfonamide] | < 50 nM | 100 to 500 nM
CC(C)n1cc(-c2ccc3sccc3c2)c2ccc(NS(C)(=O)=O)cc21 [Example 95, N-(3-Benzo[b]thiophen-5-yl-1-isopropyl-1H-indol-6-yl)-methanesulfonamide] | < 50 nM | 500 to 1000 nM
CC(C)n1cc(-c2ccc3oc(=O)ccc3c2)c2ccc(NS(C)(=O)=O)cc21 [Example 96, N-[1-Isopropyl-3-(2-oxo-2H-chromen-6-yl)-1H-indol-6-yl]-methanesulfonamide] | < 50 nM | > 1000 nM

Other lines, results leading:

Ki [1] | Ki [2] | SMILES
< 50 nM | > 1000 nM | CC(C)n1cc(-c2ccc(C#N)cc2)c2ccc(NS(C)(=O)=O)cc21 [Example 28, N-[3-(4-Cyano-phenyl)-1-isopropyl-1H-indol-6-yl]-methanesulfonamide]
< 50 nM | > 1000 nM | Cn1cc(-c2ccc([N+](=O)[O-])cc2)c2ccc(NS(C)(=O)=O)cc21 [Example 30, N-[1-Methyl-3-(4-nitro-phenyl)-1H-indol-6-yl]-methanesulfonamide]
< 50 nM | 500 to 1000 nM | CC(C)n1cc(-c2ccc(C#N)c(F)c2)c2ccc(NS(C)(=O)=O)cc21 [Example 38, N-[3-(4-Cyano-3-fluoro-phenyl)-1-isopropyl-1H-indol-6-yl]-methanesulfonamide]
< 50 nM | 100 to 500 nM | CC(C)n1cc(-c2ccc(C#N)s2)c2ccc(NS(C)(=O)=O)cc21 [Example 43, N-[3-(5-Cyano-thiophen-2-yl)-1-isopropyl-1H-indol-6-yl]-methanesulfonamide]
< 50 nM | > 1000 nM | CS(=O)(=O)Nc1ccc2c(-c3ccc(C#N)cc3)cn(C3CCCC3)c2c1 [Example 63, N-[3-(4-Cyano-phenyl)-1-cyclopentyl-1H-indol-6-yl]-methanesulfonamide]
< 50 nM | > 1000 nM | CS(=O)(=O)Nc1ccc2c(-c3ccc(C#N)cc3)cn(Cc3ccccc3)c2c1 [Example 72, N-[1-Benzyl-3-(4-cyano-phenyl)-1H-indol-6-yl]-methanesulfonamide]
< 50 nM | 50 to 100 nM | CC(C)n1cc(-c2ccc(C#N)n2C)c2ccc(NS(C)(=O)=O)cc21 [Example 78, N-[3-(5-Cyano-1-methyl-1H-pyrrol-2-yl)-1-isopropyl-1H-indol-6-yl]-methanesulfonamide]
< 50 nM | > 1000 nM | COc1ccc(-c2cn(C(C)C)c3cc(NS(C)(=O)=O)ccc23)cc1C [Example 86, N-[1-Isopropyl-3-(4-methoxy-3-methyl-phenyl)-1H-indol-6-yl]-methanesulfonamide]
< 50 nM | > 1000 nM | CC(C)n1cc(-c2ccc(C(N)=O)cc2)c2ccc(NS(C)(=O)=O)cc21 [Example 87, 4-(1-Isopropyl-6-methanesulfonylamino-1H-indol-3-yl)-benzamide]
< 50 nM | > 1000 nM | COc1ccc(-c2cn(C(C)C)c3cc(NS(C)(=O)=O)ccc23)cn1 [Example 88, N-[1-Isopropyl-3-(6-methoxy-pyridin-3-yl)-1H-indol-6-yl]-methanesulfonamide]
< 50 nM | 100 to 500 nM | CC(C)n1cc(-c2ccc(C=NO)cc2)c2ccc(NS(C)(=O)=O)cc21 [Example 94, N-{3-[4-(Hydroxyimino-methyl)-phenyl]-1-isopropyl-1H-indol-6-yl}-methanesulfonamide]
